smiles,measurement,value
CC(=O)N1[C@@H]2CC[C@H]1c1ccc(Nc3ncc(C)c(NC4CC4)n3)cc12,melting point,108 to 112 °C
